What all share (assay type): physicochemical
Data set [1] can be described thus: Evaluation of thermal properties: weight-loss initiation temperature by thermogravimetry/differential thermal analyzer STA7200. Conditions: under atmospheric pressure. The protocol: (§1) The weight-loss initiation temperatures of compounds (1), (5), (10) and compound A, serving as a compound of a comparative example, under atmospheric pressure were measured with a thermogravimetry/differential thermal analyzer STA7200 (available from Hitachi High-Tech Science Corporation). In addition, the sublimation temperature was defined as the temperature at which the rate of weight loss under vacuum (2 Pa) reached 5% and was measured with a thermogravimetry/differential thermal analyzer TA7000 (available from Hitachi High-Tech Science Corporation).

Data set [2] in a line: Evaluation of thermal properties: sublimation temperature under vacuum by thermogravimetry/differential thermal analyzer TA7000. Conditions: temperature at which the rate of weight loss under vacuum (2 Pa) reached 5%. Here is the method: as §1
Data set [3] is described as follows: Evaluation of solubility in toluene. Conditions: organic solvent or mixture, thermodynamic from solid; 50 mg in 1 mL of toluene, stirred at room temperature. Here is the method: First, 50 mg of compound (25), 50 mg of compound (29), which were synthesized in the above examples, and 50 mg of compound A as a comparative example were placed in respective sample bottles each containing 1 mL of toluene. The mixtures were stirred at room temperature to determine whether the compounds were dissolved.

The results in this text go back to patent publication US20230403873A1, “ORGANIC COMPOUND AND ORGANIC LIGHT-EMITTING DEVICE” (CANON KABUSHIKI KAISHA, priority 2022, published 2023).

Regarding `CC(C)(C)c1cc2ccc3cc4c(c5ccc(c1)c2c35)-c1ccc(-c2cccc(-c3ccc5c(c3)C(C)(C)c3cc6ccc7cc(C(C)(C)C)cc8ccc(c3-5)c6c78)n2)cc1C4(C)C` [(10)], in data set [1], the Weight-loss initiation temperature turned out to be 260 °C. In addition, in data set [2], the Sublimation temperature turned out to be 205 °C.
In the same order, the values of `CC(C)(C)c1cc2ccc3cc4c(c5ccc(c1)c2c35)-c1ccc(-c2cc(-c3ccc5c(c3)C(C)(C)c3cc6ccc7cc(C(C)(C)C)cc8ccc(c3-5)c6c78)ncn2)cc1C4(C)C` [Compound (1)] are 450 °C and 385 °C.
Turning to `CC(C)(C)c1cc2ccc3cc4c(c5ccc(c1)c2c35)-c1ccc(-c2ncnc(-c3ccc5c(c3)C(C)(C)c3cc6ccc7cc(C(C)(C)C)cc8ccc(c3-5)c6c78)n2)cc1C4(C)C` [Compound (5)], the Weight-loss initiation temperature in data set [1] is 385 °C. This molecule gave a Sublimation temperature in data set [2] of 315 °C.
In general, solubility refers to the concentration that dissolves in the medium under given conditions. With `CC(C)(C)c1cc2ccc3cc4c(c5ccc(c1)c2c35)-c1ccc(-c2ccc3c(c2)C2(c5ccccc5-c5ccccc52)c2cc(-c5ccc6c(c5)C(C)(C)c5cc7ccc8cc(C(C)(C)C)cc9ccc(c5-6)c7c89)ccc2-3)cc1C4(C)C` [Compound (25)], the solubility in data set [3] is more than 50 mg/mL.
As for `CC(C)(C)c1cc2ccc3cc4c(c5ccc(c1)c2c35)-c1ccc(-c2ccc3c(c2)C2(c5ccccc5-3)c3ccccc3-c3ccc(-c5ccc6c(c5)C(C)(C)c5cc7ccc8cc(C(C)(C)C)cc9ccc(c5-6)c7c89)cc32)cc1C4(C)C` [Compound (29)], the solubility in data set [3] is more than 50 mg/mL.
In turn, `CC(C)(C)c1cc2ccc3cc4c(c5ccc(c1)c2c35)-c1ccc(-c2ccc(-c3ccc(-c5ccc6c(c5)C(C)(C)c5cc7ccc8cc(C(C)(C)C)cc9ccc(c5-6)c7c89)cc3)cc2)cc1C4(C)C` [Compound A] yielded a Weight-loss initiation temperature in data set [1] of 550 °C. Also, in data set [3], the solubility is less than 50 mg/mL. In addition, the Sublimation temperature in data set [2] turned out to be 470 °C.
